This passage reports EC50 results from patent US20240239790A1, “7-Morpholino-1,6-Naphthyridin-5-yl Derivatives and Pharmaceutical Compositions Thereof Useful as DNA-PK Inhibitor” (adMare Therapeutics Society, priority 2021, published 2024).

Like-named read-outs stand apart in the source and are kept apart here.

The subject of assay [1] is pDNA-PK induction in FaDU tumour spheroids. The assay is described as follows: Multicellular tumour spheroid + radiation, pDNA-PK (ser2056) inhibition, immunohistochemical endpoint, FaDU. The assay is classed as cell-based. The conditions noted are these: Homo sapiens, 20 Gy. How it is done:
(§1) Multicellular tumour spheroids determination of compound inhibition of pDNA-PK induction following radiation. Tumour spheroids were grown to approximately 0.5 mm in diameter and irradiated with 20 Gy in combination with inhibitor test compounds to determine their potency. Inhibitor concentration for 50% reduction in pDNA-PK induction (IC50) was determined via immunohistochemical staining in spheroid cryosections taken 2 hours following radiation. For cell survival endpoint 8 Gy radiation was used and 3 hours following radiation spheroids were dissociated, counted and plated for colony forming endpoint.
Spheroid+radiation pDNA-PK. Radiation: 20 Gy. Drug: serial dilution 5 or 10 μM down to 3.5 nM (11 wells). Spheroids: 3-6 spheroids per well (300-500 μm diameter). 20% 02 and 5% CO2. 96 well plate format. Endpoint: fluorescent immunostain pDNA-PK ser2056 and image on microscope. Analysis: determine EC50 concentrations that decreases pDNA-PK induction by 50% after irradiation.
(§2) Multicellular tumour spheroids were used to determine potency of test compounds in a 3D tissue environment using inhibition of pDNA-PK induction following radiation or cell survival as the endpoint. For the pDNA-PK endpoint HCT116 or FaDU tumour spheroids were grown to approximately 0.5 mm in diameter and irradiated with 20 Gy in combination with inhibitor test compounds to determine their potency. Experiments were carried out in 96 well plates containing 0.7 mls of MEM media containing 10% FBS and 10 mM glucose under 20% O2 & 5% CO2 at 37° C. Following dilution of compounds 1:1000 from DMSO stocks, compounds were serially diluted from 10 μM down to 3.5 nM and 5-10 spheroids added. 96 well plates were constantly stirred to avoid spheroids settling during the course of the experiment. The inhibitor concentration for 50% reduction in pDNA-PK induction (EC50) was determined via immunohistochemical staining in spheroid cryosections taken 2 hours following radiation using anti-pDNA-PK (ser 2056) and fixed immediately in formalin following sectioning. For cell survival endpoint 8 Gy radiation was used and, 3 hours following radiation, spheroids were dissociated, counted and plated for colony forming endpoint. Data presented in the table compound potency as EC50 [μM].

A further assay concerns HCT116 tumour spheroids. Briefly: Spheroid + radiation colony forming cell survival assay (SF), HCT116. The assay is classed as cell-based. To be noted: Homo sapiens, HCT-116, 8 Gy. Here is the method: as §1
Spheroid+radiation colony forming cell survival assay (SF). Radiation 8 Gy. Drug: serial dilution 5 μM down to 10 nM (12 wells×2 repeat). Spheroids: 5-10 spheroids per well (300 to 500 μm diameter). HCT116. 5% 02 and 5% CO2. 96 well pate format for assay. Protocol: pre incubate 1 hour with drug, irradiate 8 Gy, post incubate 3 hrs with drug, dissociate spheroids and count cells and plate for colony forming assay. Endpoint: wait 4-7 days and count colonies. Analysis: determine EC50 concentration that increase cell kill by 50% over radiation alone.
as §2

The mark [2] stands for this setting: 2 hours following radiation, 20% O2, Example 9 Study 2, read-out: Spheroid Cell line: FaDU Immunohistochemical endpoint pDNA-PK inhibition EC50.
[3] abbreviates: 2 h, spheroids, 20% O2, Example 8, read-out: Cell line: FaDU Immunohistochemical endpoint pDNA-PK inhibition EC50.
Where [4] appears, read: plated 3 hours following radiation, Example 9 Study 2, read-out: Spheroid Cell line: HCT116 Colony forming endpoint Surviving Fraction EC50.
The mark [5] stands for this setting: spheroids, 5% O2, concentration that increases cell kill by 50% over radiation alone, Example 8, read-out: Cell line: HCT116 Colony forming endpoint Surviving Fraction EC50.

In the case of `O=C(NO)c1cnc2cc(N3CCOCC3)nc(O[C@H]3CC[C@@H](n4ccnc4)CC3)c2c1` [Compound 172, 5-(((1s,4s)-4-(1H-imidazol-1-yl)cyclohexyl)oxy)-N-hydroxy-7-morpholino-1,6-naphthyridine-3-carboxamide], the EC50 in assay [1] (setting [2]) and in assay [1] (setting [3]) was 1000 to 10000 nM each time.

With `CN(C)CCOc1cnc(N[C@H]2CC[C@@H](Oc3nc(N4CCOCC4)cc4ncccc34)CC2)nc1` [Compound 64, 5-(2-(Dimethylamino)ethoxy)-N-((1s,4s)-4-((7-morpholino-1,6-naphthyridin-5-yl)oxy)cyclohexyl)pyrimidin-2-amine], the EC50 (in assay [1] (setting [2]); in assay [1] (setting [3]); in the assay on HCT116 tumour spheroids (setting [4]); with HCT116 tumour spheroids (setting [5])) was 10 to 500 nM each time.

For `CS(=O)(=O)NC(=O)c1cnc2cc(N3CCOCC3)nc(O[C@H]3CC[C@@H](n4ccnc4)CC3)c2c1` [Compound 175, 5-(((1s,4s)-4-(1H-imidazol-1-yl)cyclohexyl)oxy)-N-(methylsulfonyl)-7-morpholino-1,6-naphthyridine-3-carboxamide], the EC50 in the assay with HCT116 tumour spheroids (setting [4]) and with HCT116 tumour spheroids (setting [5]) was 10000 to 100000 nM each time.

On to `CN(C)C(=O)COc1cnc(N[C@H]2CC[C@@H](Oc3nc(N4CCOCC4)cc4ncccc34)CC2)nc1` [Compound 54, N,N-Dimethyl-2-((2-(((1s,4s)-4-((7-morpholino-1,6-naphthyridin-5-yl)oxy)cyclohexyl)amino)pyrimidin-5-yl)oxy)acetamide], for which the EC50 (in assay [1] (setting [2]); in assay [1] (setting [3]); in the assay on HCT116 tumour spheroids (setting [4]); in the assay with HCT116 tumour spheroids (setting [5])) was 10 to 500 nM throughout.

Regarding `O=C(O)c1cnc2cc(N3CCOCC3)nc(O[C@H]3CC[C@@H](n4ccnc4)CC3)c2c1` [Compound 165, 5-(((1s,4s)-4-(1H-imidazol-1-yl)cyclohexyl)oxy)-7-morpholino-1,6-naphthyridine-3-carboxylic acid], the EC50 with HCT116 tumour spheroids (setting [4]) and in the assay with HCT116 tumour spheroids (setting [5]) was 10000 to 100000 nM throughout.
